Reference: US9029377B2, “Platelet-activating factor receptor antagonists” (Merck Sharp & Dohme Corp., priority 2009, dated 2015)

The compounds below were run against PAFR (Homo sapiens, UniProt P25105) (assay: PAF Binding Assay (PAFR binding)).
Chain of PAFR (P25105 whole entry): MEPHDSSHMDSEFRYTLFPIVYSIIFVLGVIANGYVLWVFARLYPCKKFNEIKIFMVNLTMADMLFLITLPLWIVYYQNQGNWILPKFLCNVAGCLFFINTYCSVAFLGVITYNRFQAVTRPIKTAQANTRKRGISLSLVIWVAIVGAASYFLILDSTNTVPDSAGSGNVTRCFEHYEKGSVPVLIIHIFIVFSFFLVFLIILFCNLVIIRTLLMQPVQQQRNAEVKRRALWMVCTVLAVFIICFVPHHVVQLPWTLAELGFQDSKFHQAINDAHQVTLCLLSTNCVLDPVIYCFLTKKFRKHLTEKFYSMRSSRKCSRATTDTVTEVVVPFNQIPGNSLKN

Question: `Cc1cc(C)cc(S(=O)(=O)N[C@H]2CCC[C@@H](n3cnnc3)C2)c1` [Compound 2Me, 3,5-dimethyl-N-[(1S,3R)-3-(4H-1,2,4-triazol-4-yl)cyclohexyl]benzenesulfonamide] was tested. Which IC50 did it give?
Answer: Its IC50 is 194 nM.

Question: Which IC50 does the source give for `CCc1ccc(S(=O)(=O)N[C@H]2CCC[C@@H](n3cnnc3)C2)cc1-c1cccnc1OC` [Compound 2Mn, 4-ethyl-3-(2-methoxypyridin-3-yl)-N-[(1S,3R)-3-(4H-1,2,4-triazol-4-yl)cyclohexyl]benzenesulfonamide] here?
Answer: The IC50 was 63 nM.

Question: How did the IC50 turn out when `O=S(=O)(N[C@H]1CCC[C@@H](n2cnnc2)C1)c1ccc(-c2noc(C3CCC3)n2)cc1C1CC1` [Compound 2Kf, 4-(5-cyclobutyl-1,2,4-oxadiazol-3-yl)-2-cyclopropyl-N-[(1S,3R)-3-(4H-1,2,4-triazol-4-yl)cyclohexyl]benzenesulfonamide] was run?
Answer: Its IC50 is 2.8 nM.

Question: For `CCc1cc(-c2ccc(OC(F)(F)F)cc2)ccc1S(=O)(=O)N[C@@H]1C[C@H](n2cnnc2)CC(F)(F)C1` [Compound 2Cal, N-[(1R,5S)-3,3-difluoro-5-(4H-1,2,4-triazol-4-yl)cyclohexyl]-3-ethyl-4′-(trifluoromethoxy)biphenyl-4-sulfonamide], which IC50 is on record?
Answer: Its IC50 is 11 nM.

Question: With `Cc1nncn1[C@@H]1CCC[C@H](NS(=O)(=O)c2cc(-c3ccc(F)cc3)cc(C(F)(F)F)c2)C1` [Compound 3Ab, 4′-fluoro-N-[(1S,3R)-3-(3-methyl-4H-1,2,4-triazol-4-yl)cyclohexyl]-5-(trifluoromethyl)biphenyl-3-sulfonamide] as the compound, how does the IC50 read?
Answer: The IC50 was 4.8 nM.

Question: With `CCc1cc(-c2ccc(OCC(F)(F)F)nc2)ccc1S(=O)(=O)N[C@H]1CCC[C@@H](n2cnnc2C)C1` [Compound 2Abe, 2-ethyl-N-[(1S,3R)-3-(3-methyl-4H-1,2,4-triazol-4-yl)cyclohexyl]-4-[6-(2,2,2-trifluoroethoxy)pyridin-3-yl]benzenesulfonamide] as the compound, how does the IC50 read?
Answer: The IC50 was 0.2 nM.

Question: How did the IC50 turn out when `CCc1cc(-c2ccc(OC(F)(F)F)cc2)ccc1S(=O)(=O)N[C@@H]1C[C@H](n2cnnc2C)CC(F)(F)C1` [Compound 2Cbd, N-[(1R,5S)-3,3-difluoro-5-(3-methyl-4H-1,2,4-triazol-4-yl)cyclohexyl]-3-ethyl-4′-(trifluoromethoxy)biphenyl-4-sulfonamide] was run?
Answer: Its IC50 is 0.9 nM.

Question: “2-ethyl-N-[(1S,3R)-3-(4H-1,2,4-triazol-4-yl)cyclohexyl]biphenyl-4-sulfonamide [Compound 2Af]” was tested. Which IC50 did it give?
Answer: Its IC50 is 15 nM.

Question: For `CCCCOc1ccc(S(=O)(=O)N[C@@H]2C[C@H](n3cnnc3C)CC(F)(F)C2)cc1` [Compound 2Qw, 4-butoxy-N-[(1R,5S)-3,3-difluoro-5-(3-methyl-4H-1,2,4-triazol-4-yl)cyclohexyl]benzenesulfonamide], which IC50 is on record?
Answer: Its IC50 is 4.2 nM.

Question: How did the IC50 turn out when `O=S(=O)(N[C@@H]1C[C@H](n2cnnc2)CC(F)(F)C1)c1ccc(-c2ccc(OC(F)(F)F)cc2)c(F)c1` [Compound 2Ga, N-[(1R,5S)-3,3-difluoro-5-(4H-1,2,4-triazol-4-yl)cyclohexyl]-2-fluoro-4′-(trifluoromethoxy)biphenyl-4-sulfonamide] was run?
Answer: Its IC50 is 10 nM.

Question: Which IC50 does the source give for `Cc1nncn1[C@@H]1CCC[C@H](NS(=O)(=O)c2ccc(-c3ccc(OC(F)F)cc3)c(F)c2)C1` [Compound 2Fc, 4′-(difluoromethoxy)-2-fluoro-N-[(1S,3R)-3-(3-methyl-4H-1,2,4-triazol-4-yl)cyclohexyl]biphenyl-4-sulfonamide] here?
Answer: The IC50 was 1.9 nM.

Question: Which IC50 does the source give for `CCc1cc(-c2ccccc2OC(F)(F)F)ccc1S(=O)(=O)N[C@H]1CCC[C@@H](n2cnnc2)C1` [Compound 2Aaa, 3-ethyl-N-[(1S,3R)-3-(4H-1,2,4-triazol-4-yl)cyclohexyl]2′-(trifluoromethoxy)biphenyl-4-sulfonamide] here?
Answer: Its IC50 is 44 nM.

Question: `Cc1nncn1[C@@H]1CCC[C@H](NS(=O)(=O)c2ccc(-c3noc(C4CC4)n3)c(F)c2)C1` [Compound 2Fh, 4-(5-cyclopropyl-1,2,4-oxadiazol-3-yl)-3-fluoro-N-[(1S,3R)-3-(3-methyl-4H-1,2,4-triazol-4-yl)cyclohexyl]benzenesulfonamide] was tested. Which IC50 did it give?
Answer: Its IC50 is 9.9 nM.

Question: With `COc1ncccc1-c1cc(F)cc(S(=O)(=O)N[C@H]2CCC[C@@H](n3cnnc3)C2)c1` [Compound 3Fb, 3-fluoro-5-(2-methoxypyridin-3-yl)-N-[(1S,3R)-3-(4H-1,2,4-triazol-4-yl)cyclohexyl]benzenesulfonamide] as the compound, how does the IC50 read?
Answer: Its IC50 is 9 nM.

Question: Which IC50 does the source give for `CCc1cc(-c2cccn3ccnc23)ccc1S(=O)(=O)N[C@H]1CCC[C@@H](n2cnnc2)C1` [Compound 2d, 2-ethyl-4-imidazo[1,2-a]pyridin-8-yl-N-[(1S,3R)-3-(4H-1,2,4-triazol-4-yl)cyclohexyl]benzenesulfonamide] here?
Answer: Its IC50 is 3.9 nM.

Question: For `O=S(=O)(N[C@H]1CCC[C@@H](n2cnnc2)C1)c1ccc(-c2ccc(OCC(F)(F)F)nc2)c(F)c1` [Compound 2Ef, 3-fluoro-N-[(1S,3R)-3-(4H-1,2,4-triazol-4-yl)cyclohexyl]-4-[6-(2,2,2-trifluoroethoxy)pyridin-3-yl]benzenesulfonamide], which IC50 is on record?
Answer: Its IC50 is 7 nM.

Question: How did the IC50 turn out when “4′-(difluoromethoxy)-N-[(1R,5S)-3,3-difluoro-5-(4H-1,2,4-triazol-4-yl)cyclohexyl]-2-ethylbenzenesulfonamide [Compound 2Caf]” was run?
Answer: The IC50 was 12 nM.

Question: With `O=S(=O)(N[C@H]1CCC[C@@H](c2cccnc2)C1)c1ccc(-c2noc(C3CC3)n2)cc1` (relative stereo) [Compound 8e, 4-(5-cyclopropyl-1,2,4-oxadiazol-3-yl)-N-(3-pyridin-cis-3-ylcyclohexyl)benzenesulfonamide] as the compound, how does the IC50 read?
Answer: Its IC50 is 1.9 nM.

Question: How did the IC50 turn out when `O=S(=O)(N[C@H]1CCC[C@@H](n2cnnc2)C1)c1cc(-c2cncc3ccccc23)cc(C(F)(F)F)c1` [3 Ay, 3-isoquinolin-4-yl-N-[(1S,3R)-3-(4H-1,2,4-triazol-4-yl)cyclohexyl]-5-(trifluoromethyl)benzenesulfonamide] was run?
Answer: Its IC50 is 20 nM.

Question: How did the IC50 turn out when `O=S(=O)(N[C@H]1CCC[C@@H](n2cnnc2)C1)c1cc(-c2cc3ccccc3s2)cc(C(F)(F)F)c1` [Compound 3Aaf, 3-(1-benzothien-2-yl)-N-[(1S,3R)-3-(4H-1,2,4-triazol-4-yl)cyclohexyl]-5-(trifluoromethyl)benzenesulfonamide] was run?
Answer: The IC50 was 1.2 nM.

Question: “4-(5-cyclopropyl-1,2,4-oxadiazol-3-yl)-N-[(1R,5S)-3,3-difluoro-5-(4H-1,2,4-triazol-4-yl)cyclohexyl]-3-ethylbiphenyl-4-sulfonamide [Compound 2Cy]” was tested. Which IC50 did it give?
Answer: Its IC50 is 7.3 nM.

Question: How did the IC50 turn out when `CCc1cc(-c2ccc(OC(F)(F)F)cc2)ccc1S(=O)(=O)N[C@H]1CCC[C@@H](n2cnnc2C)C1` [Compound 2Abd, 3-ethyl-N-[(1S,3R)-3-(3-methyl-4H-1,2,4-triazol-4-yl)cyclohexyl]-4′-(trifluoromethoxy)biphenyl-4-sulfonamide] was run?
Answer: Its IC50 is 2.2 nM.

Question: With `CCc1cc(-c2ccccc2F)ccc1S(=O)(=O)N[C@H]1CCC[C@@H](n2cnnc2)C1` [Compound 2Al, 3-ethyl-2′-fluoro-N-[(1S,3R)-3-(4H-1,2,4-triazol-4-yl)cyclohexyl]benzenesulfonamide] as the compound, how does the IC50 read?
Answer: The IC50 was 22 nM.

Question: How did the IC50 turn out when `CCOC(=O)c1cn2cc(Cl)cc(-c3cc(C(F)(F)F)cc(S(=O)(=O)N[C@H]4CCC[C@@H](n5cnnc5)C4)c3)c2n1` [Compound 3Aaw, ethyl 6-chloro-8-[3-({[(1S,3R)-3-(4H-1,2,4-triazol-4-yl)cyclohexyl]amino}sulfonyl)-5-(trifluoromethyl)phenyl]imidazo[1,2-a]pyridine-2-carboxylate] was run?
Answer: The IC50 was 0.5 nM.

Question: `CCc1cc(-c2ccc(F)cc2)ccc1S(=O)(=O)N[C@H]1CCC[C@@H](n2cnnc2)C1` [Compound 2An, 3-ethyl-4′-fluoro-N-[(1S,3R)-3-(4H-1,2,4-triazol-4-yl)cyclohexyl]benzenesulfonamide] was tested. Which IC50 did it give?
Answer: Its IC50 is 17 nM.

Question: Which IC50 does the source give for `O=S(=O)(N[C@H]1CCC[C@@H](n2cnnc2)C1)c1cc(-c2cccc3nccn23)cc(C(F)(F)F)c1` [Compound 3Aaa, 3-imidazo[1,2-a]-pyridin-5-yl-N-[(1S,3R)-3-(4H-1,2,4-triazol-4-yl)cyclohexyl]-5-(trifluoromethyl)benzenesulfonamide] here?
Answer: Its IC50 is 13 nM.

Question: `CCc1cc(-c2ccc(C(F)(F)F)cc2C(F)(F)F)ccc1S(=O)(=O)N[C@H]1CCC[C@@H](n2cnnc2)C1` [Compound 2Abm, 3-ethyl-N-[(1S,3R)-3-(4H-1,2,4-triazol-4-yl)cyclohexyl]-2′,4′-bis(trifluoromethyl)biphenyl-4-sulfonamide] was tested. Which IC50 did it give?
Answer: The IC50 was 83 nM.

Question: With `CCc1cccc(S(=O)(=O)N[C@@H]2C[C@H](n3cnnc3)CC(F)(F)C2)c1` [Compound 2Pk, N-[(1R,5S)-3,3-difluoro-5-(4H-1,2,4-triazol-4-yl)cyclohexyl]-3-ethylbenzenesulfonamide] as the compound, how does the IC50 read?
Answer: Its IC50 is 370 nM.

Question: How did the IC50 turn out when `O=S(=O)(N[C@H]1CCC[C@@H](n2cnnc2)C1)c1cc(-c2cc(Cl)cn3ccnc23)cc(C(F)(F)F)c1` [Compound 3Aat, 3-(6-chloroimidazo[1,2-a]pyridin-8-yl)-N-[(1S,3R)-3-(4H-1,2,4-triazol-4-yl)cyclohexyl]-5-(trifluoromethyl)benzenesulfonamide] was run?
Answer: The IC50 was 2.7 nM.

Question: With `O=S(=O)(N[C@H]1CCC[C@@H](n2cnnc2)C1)c1cc(-c2ccc3nc(C4CC4)nn3c2)cc(C(F)(F)F)c1` [Compound 3Aaq, 3-(2-cyclopropyl[1,2,4]triazolo[1,5-a]pyridin-6-yl)-N-[(1S,3R)-3-(4H-1,2,4-triazol-4-yl)cyclohexyl]-5-(trifluoromethyl)benzenesulfonamide] as the compound, how does the IC50 read?
Answer: Its IC50 is 20 nM.

Question: With `O=S(=O)(N[C@H]1CCC[C@@H](n2cnnc2)C1)c1cc(OC(F)(F)F)cc(-c2ccccc2)c1` [Compound 3Ea, N-[(1S,3R)-3-(4H-1,2,4-triazol-4-yl)cyclohexyl]-5-(trifluoromethoxy)biphenyl-3-sulfonamide] as the compound, how does the IC50 read?
Answer: The IC50 was 10 nM.

Question: With `COc1ccc(S(=O)(=O)N[C@H]2CCC[C@@H](n3cnnc3)C2)c(OC)c1` [Compound 2My, 2,4-dimethoxy-N-[(1S,3R)-3-(4H-1,2,4-triazol-4-yl)cyclohexyl]benzenesulfonamide] as the compound, how does the IC50 read?
Answer: The IC50 was 210 nM.

Question: How did the IC50 turn out when `CCc1cc(-c2ccc(OC3CCC3)nc2)ccc1S(=O)(=O)N[C@H]1CCC[C@@H](n2cnnc2)C1` [Compound 2Aaq, 4-[6-(cyclobutyloxy)pyridin-3-yl]-2-ethyl-N-[(1S,3R)-3-(4H-1,2,4-triazol-4-yl)cyclohexyl]benzenesulfonamide] was run?
Answer: The IC50 was 0.8 nM.

Question: “3-(2-cyclopropylpyrazolo[1,5-a]pyrimidin-7-yl)-N-[(1R,5S)-3,3-difluoro-5-(3-methyl-4H-1,2,4-triazol-4-yl)cyclohexyl]-5-(trifluoromethyl)benzenesulfonamide [Compound 9Af]” was tested. Which IC50 did it give?
Answer: Its IC50 is 5.1 nM.
